Measured values reported in US20090306576A1, “System for Transmembrane Administration of a Permeant and Method for Administering a Permeant” (Pantec Biosolutions AG, priority 2005, published 2009).

Experiment: Serum concentration over time after transdermal application of the drug patch on microporated skin (FIG. 10a, 10b)
Assay type: in vivo
Details: over a short period of about two hours
Text: The drug is entering the permeation surface by passive diffusion. The amount of drug entering the permeation surface is mainly determined by the permeation surface A(t) over time, as long as the patch 5 provides a sufficient amount of drug. Preferably the patch 5 is able to provide much larger quantities of drug than the permeation surface A(t) is able to absorb. Preferably the patch 5 is able to provide a sufficient concentration level of the permeant at the permeation surface over a period of time during with the permeant is applied. Therefore, the serum concentration as a function of time can be determined by an appropriate poration of the skin 1 with an initial microporation.
FIG. 10a to 10b show the administration of the same drug, for example 100 mg acetylsalicylic acid, the drug being arranged on the skin 1 as disclosed in FIG. 3c. Depending on the permeation surface A(t) as a function of time, the level of the serum concentration as well as the time period within which the drug is released, can be predescribed. In FIG. 10a the permeation surface A(t), not shown in detail, is chosen such that the maximal serum concentration is about 25 g/l over a short period of time of about two hours. […]

With `CC(=O)Oc1ccccc1C(=O)O` [acetylsalicylic acid] the maximal serum concentration (FIG. 10a, 100 mg acetylsalicylic acid on porated skin (transdermal application TD)) was “about 25 g/l” and the maximal serum concentration (FIG. 10b, fast application (turbo), 100 mg acetylsalicylic acid on porated skin) was “about 30 g/l”.
